Here are results for twelve compounds from ChEMBL document CHEMBL1156104, “Synthesis and anticancer activity of novel amide derivatives of non-acetal deoxoartemisinin” (Bioorg Med Chem Lett, 2009).

For assay [1], the system named is A549. Kind of assay: Anticancer activity against human A549 cells by sulforhodamine B assay. Type of assay: functional, cell-based. (In general: Sulforhodamine B stains cellular protein and so reports cell mass.)
The species entered for assay [2] is Mus musculus. Kind of assay: Antiangiogenic activity in mouse assessed as inhibition of VEGF-induced angiogenesis at 10 uM by Matrigel plug assay. The format is functional.
The test system of assay [3] is SK-MEL-2. The assay is described as follows: Anticancer activity against human SK-MEL-2 cells by sulforhodamine B assay. Type of assay: functional, cell-based.
Assay [4] deals with XF498. The assay is described as follows: Anticancer activity against human XF498 cells by sulforhodamine B assay. Type of assay: functional, cell-based.
In assay [5] the test system is HCT-15. The assay is described as follows: Anticancer activity against human HCT15 cells by sulforhodamine B assay. The format is functional, cell-based.
Assay [6] relates to SK-OV-3. Kind of assay: Anticancer activity against human SKOV3 cells by sulforhodamine B assay. Type of assay: functional, cell-based.

Regarding `C[C@@H]1CC[C@H]2[C@H](CBr)CO[C@@H]3O[C@]4(C)CC[C@@H]1[C@]32OO4`, the IC50 in assay [1] was found to be 11.2 µM; in assay [3] it was 14.2 µM; in assay [4], 16.4 µM; in assay [5], 11.2 µM; in assay [6] it was 15.4 µM. Besides, the “inhibition (INH)” value in assay [2] turned out to be 95%.

Take `COC(=O)[C@@H](CS)N(Cc1ccccc1)C(=O)CC[C@H]1O[C@@H]2O[C@]3(C)CC[C@H]4[C@H](C)CCC([C@H]1C)[C@@]24OO3` (stereo not given in full): the IC50 in assay [1] amounted to 3.12 µM; in assay [3] it was 3.15 µM; in assay [4] it was 2.66 µM; in assay [5], 1.54 µM; in assay [6], 2.35 µM.

Take `C[C@@H]1CCC2[C@@H](C)[C@@H](CCC(=O)N3CCC(Cc4ccccc4)CC3)O[C@@H]3O[C@]4(C)CC[C@@H]1[C@@]23OO4` (stereo not given in full): the concentration for half-maximal inhibition (IC50) amounted to 1.35 µM in assay [1]; 1.25 µM in assay [3]; 1.95 µM in assay [4]; 1.45 µM in assay [5]; 1.65 µM in assay [6].

As for `C[C@@H]1CCC2[C@@H](C)[C@@H](CCNC(=O)CC[C@H](NC(=O)CC[C@H]3O[C@@H]4O[C@]5(C)CC[C@H]6[C@H](C)CCC([C@H]3C)[C@@]46OO5)C(=O)NCC[C@H]3O[C@@H]4O[C@]5(C)CC[C@H]6[C@H](C)CCC([C@H]3C)[C@@]46OO5)O[C@@H]3O[C@]4(C)CC[C@@H]1[C@@]23OO4` (stereo not given in full), the IC50 in assay [1] worked out at 13.5 µM; in assay [3], 18.2 µM; in assay [4] it was 11.6 µM; in assay [5] it was 19.8 µM; in assay [6] it was 12.4 µM. For the same compound, the “inhibition (INH)” value in assay [2] was 80%.

As for `C[C@@H]1CCC2[C@@H](C)[C@@H](CCNC(=O)CC[C@H]3O[C@@H]4O[C@]5(C)CC[C@H]6[C@H](C)CCC([C@H]3C)[C@@]46OO5)O[C@@H]3O[C@]4(C)CC[C@@H]1[C@@]23OO4` (stereo not given in full), the IC50 in assay [1] turned out to be 7.63 µM; in assay [3], 9.94 µM; in assay [4], 5.76 µM; in assay [5], 7.83 µM; in assay [6], 4.36 µM.

On to `C[C@H]1[C@@H](CCSCC[C@H]2O[C@@H]3O[C@]4(C)CC[C@H]5[C@H](C)CCC([C@H]2C)[C@@]35OO4)O[C@@H]2O[C@]3(C)CCC4[C@H](C)CC[C@@H]1[C@]42OO3` (stereo not given in full), for which the IC50 is 5.63 µM in assay [1]; 7.56 µM in assay [3]; 5.44 µM in assay [4]; 3.53 µM in assay [5]; 4.86 µM in assay [6].

As for `C[C@@H]1CCC2[C@@H](C)[C@@H](CCC(=O)NCCCN3CCN(CCCNC(=O)CC[C@H]4O[C@@H]5O[C@]6(C)CC[C@H]7[C@H](C)CCC([C@H]4C)[C@@]57OO6)CC3)O[C@@H]3O[C@]4(C)CC[C@@H]1[C@@]23OO4` (stereo not given in full), the IC50 in assay [1] worked out at 0.85 µM; in assay [3], 0.45 µM; in assay [4], 0.46 µM; in assay [5] it was 0.84 µM; in assay [6], 0.63 µM.

Take `C[C@@H]1CCC2[C@@H](C)[C@@H](CCC(=O)NCc3ccccc3)O[C@@H]3O[C@]4(C)CC[C@@H]1[C@@]23OO4` (stereo not given in full): the IC50 in assay [1] stood at 5.13 µM; in assay [3] it was 8.36 µM; in assay [4] it was 3.46 µM; in assay [5], 6.22 µM; in assay [6] it was 4.75 µM.

On to `CO[C@H]1O[C@@H]2O[C@@]3(C)CC[C@H]4[C@H](C)CC[C@@H]([C@H]1C)[C@@]24OO3` [ARTEMETHER], for which the IC50 stood at 8.54 µM in assay [1]; 7.24 µM in assay [3]; 9.1 µM in assay [4]; 9.66 µM in assay [5]; 8.03 µM in assay [6].

For the compound `C[C@@H]1CC[C@H]2[C@@H](C)C(=O)O[C@@H]3O[C@@]4(C)CC[C@@H]1[C@]32OO4` [ARTEMISININ], the IC50 is 15.2 µM in assay [1]; 12.9 µM in assay [3]; 16.2 µM in assay [4]; 17.2 µM in assay [5]; 14.3 µM in assay [6].

Turning to `C[C@H]1[C@@H](O)O[C@@H]2O[C@@]3(C)CC[C@H]4[C@H](C)CC[C@@H]1[C@@]24OO3` [ARTENIMOL], the IC50 in assay [1] turned out to be 0.63 µM; in assay [3], 0.75 µM; in assay [4] it was 0.54 µM; in assay [5], 0.46 µM; in assay [6], 0.85 µM.

Consider `COc1cccc2c1C(=O)c1c(O)c3c(c(O)c1C2=O)C[C@@](O)(C(=O)CO)C[C@@H]3O[C@H]1C[C@H](N)[C@H](O)[C@H](C)O1` [DOXORUBICIN], for which the IC50 in assay [1] amounted to 0.075 µM; in assay [3], 0.028 µM; in assay [6] it was 0.046 µM.

One may read the IC50 as the concentration needed to halve the response being measured.
